Values quoted from earlier work in PMC11187573, “Identification of SARS-CoV-2 Mpro inhibitors through deep reinforcement learning for de novo drug design and computational chemistry approaches” (RSC Medicinal Chemistry, 2024).

Tested on: Mpro
Conditions: ML dataset, Origin COVID_Moonshot; ref COVID Moonshot; cited from earlier work

Row | Structure (SMILES) | IC50 [µM]
1 | Cc1ccncc1C(C(=O)NCCc1cccc(F)c1)N(C(=O)c1ccco1)c1ccc(C(C)(C)C)cc1 (stereo not drawn) [ALP-POS-02c6a514-44] | 0.112
2 | CC(C)(C)c1ccc(N(C(=O)c2ncc[nH]2)C(C(=O)NCCc2cccc(F)c2)c2cccnc2)cc1 (stereo not drawn) [ALP-POS-02c6a514-46] | 5.29
3 | CC(C)(C)c1ccc(N(C(=O)c2nccs2)C(C(=O)NCCc2cccc(F)c2)c2cccnc2)cc1 (stereo not drawn) [ALP-POS-02c6a514-49] | 0.8
4 | CC(C)(C)c1ccc(N(C(=O)c2cocn2)C(C(=O)NCCc2cccc(F)c2)c2cccnc2)cc1 (stereo not drawn) [ALP-POS-02c6a514-50] | 0.557
5 | CC(C)(C)c1ccc(N(C(=O)c2ccn[nH]2)C(C(=O)NCCc2cccc(F)c2)c2cccnc2)cc1 (stereo not drawn) [ALP-POS-02c6a514-52] | 1.78
6 | CC(C)(C)c1ccc(N(C(=O)c2ccco2)C(C(=O)NCCN2CCOCC2)c2cccnc2)cc1 (stereo not drawn) [ALP-POS-02c6a514-55] | 2.19
7 | CC(C)(C)c1ccc(N(C(=O)c2ccco2)C(C(=O)Nc2ccccc2)c2cccnc2)cc1 (stereo not drawn) [ALP-POS-02c6a514-56] | 11.2
8 | CC(C)(C)c1ccc(N(C(=O)c2ccco2)C(C(=O)NCc2ccccc2)c2cccnc2)cc1 (stereo not drawn) [ALP-POS-02c6a514-57] | 4.36
9 | O=C(C[C@@]1(C(=O)Nc2cncc3ccccc23)CCOc2ccc(Cl)cc21)N1CCN(C2CCOC2)CC1 (stereo partly drawn) [ALP-POS-2da19ca7-2] | 46.5
10 | O=C(Cc1cc(Cl)cc(OC2CC(=O)N2)c1)Nc1cncc2ccccc12 (stereo not drawn) [ALP-POS-3b848b35-2, O=C(Cc1cc(Cl)cc(OC2CC(=O)N2)c1)Nc1cncc2ccccc12, reference compound] | 0.18
11 | COc1c(Cl)cccc1OCCNC(=O)c1cc(=O)[nH]c2ccccc12 [ALP-POS-3fc1724e-1] | 11.5
12 | O=C(CC1(C(=O)Nc2cncc3ccccc23)CCOc2ccc(Cl)cc21)N1CCN(C2CCOC2)CC1 (stereo not drawn) [ALP-POS-5bb456a5-7] | 6.68
13 | O=C(C[C@]1(C(=O)Nc2cncc3ccccc23)CCOc2ccc(Cl)cc21)N1CCN(C2CCOC2)CC1 (stereo partly drawn) [ALP-POS-5bb456a5-8] | 1.99
14 | CN(C)c1ccc(N(Cc2ccccc2)C(=O)Cn2nnc3ccccc32)cc1 [ALP-POS-6d04362c-1] | 3.31
15 | O=C(Cn1nnc2ccccc21)N(Cc1ccsc1)c1ccc(N2CCOCC2)cc1 [ALP-POS-6d04362c-4] | 16.5
16 | CN(C)c1ccc(N(Cc2cscn2)C(=O)Cn2nnc3ccccc32)cc1 [ALP-POS-87c86d55-1] | 9.57
17 | CCC(=O)Nc1ccc(N(Cc2cscn2)C(=O)Cn2nnc3ccccc32)cc1 [ALP-POS-87c86d55-2] | 35.5
18 | CC(C)(C)c1ccc(N(C(=O)c2cocn2)C(C(=O)NCc2cccnc2)c2cccnc2)cc1 (stereo not drawn) [ALP-POS-88a7a97e-4] | 25.3
19 | COC(=O)C(C)NC(=O)C(c1cccnc1)N(C(=O)c1cocn1)c1ccc(C(C)(C)C)cc1 (stereo not drawn) [ALP-POS-88a7a97e-5] | 7.18
20 | COC(=O)[C@@H]1CC[C@H](NC(=O)C(c2cccnc2)N(C(=O)c2cocn2)c2ccc(C(C)(C)C)cc2)C1 (stereo partly drawn) [ALP-POS-88a7a97e-6] | 2.38
21 | CC(C)(C)c1ccc(N(C(=O)c2cocn2)C(C(=O)NC2CCOCC2)c2cccnc2)cc1 (stereo not drawn) [ALP-POS-88a7a97e-9] | 3.9
22 | COC(=O)C1CC(NC(=O)C(c2cccnc2)N(C(=O)c2cocn2)c2ccc(C(C)(C)C)cc2)C1 (stereo not drawn) [ALP-POS-88a7a97e-15] | 3.99
23 | CC(C)(C)c1ccc(N(C(=O)c2cocn2)C(C(=O)NCC2CCOC2)c2cccnc2)cc1 (stereo not drawn) [ALP-POS-88a7a97e-26] | 5.42

Row | Structure (SMILES) | IC50 [µM]
24 | CC(C)(C)c1ccc(N(C(=O)c2cocn2)C(C(=O)NCC2CCCO2)c2cccnc2)cc1 (stereo not drawn) [ALP-POS-88a7a97e-27] | 5.15
25 | CC(C)(C)c1ccc(N(C(=O)c2cocn2)C(C(=O)NC2CCOC2)c2cccnc2)cc1 (stereo not drawn) [ALP-POS-88a7a97e-30] | 2.77
26 | COCCNC(=O)C(c1cccnc1)N(C(=O)c1cocn1)c1ccc(C(C)(C)C)cc1 (stereo not drawn) [ALP-POS-88a7a97e-31] | 8.46
27 | COC(=O)CNC(=O)C(c1cccnc1)N(C(=O)c1cocn1)c1ccc(C(C)(C)C)cc1 (stereo not drawn) [ALP-POS-88a7a97e-33] | 10.8
28 | CC(C)(C)c1ccc(N(C(=O)c2cocn2)C(C(=O)NC2COC2)c2cccnc2)cc1 (stereo not drawn) [ALP-POS-88a7a97e-34] | 4.07
29 | COC(=O)C1(NC(=O)C(c2cccnc2)N(C(=O)c2cocn2)c2ccc(C(C)(C)C)cc2)CCCC1 (stereo not drawn) [ALP-POS-88a7a97e-36] | 5.26
30 | CC(C)(C)c1ccc(N(C(=O)c2cocn2)C(C(=O)NC2CC(F)(F)C2)c2cccnc2)cc1 (stereo not drawn) [ALP-POS-88a7a97e-39] | 2.35
31 | COc1ccc(NC(=O)C(c2cccnc2)N(C(=O)c2cocn2)c2ccc(C(C)(C)C)cc2)cn1 (stereo not drawn) [ALP-POS-88a7a97e-41] | 5.37
32 | Cc1ccc(S(=O)(=O)CNC(=O)C(c2cccnc2)N(C(=O)c2cocn2)c2ccc(C(C)(C)C)cc2)cc1 (stereo not drawn) [ALP-POS-88a7a97e-42] | 62.9
33 | CC(C)(C)c1ccc(N(C(=O)c2cocn2)C(C(=O)NCC(=O)OCc2ccccc2)c2cccnc2)cc1 (stereo not drawn) [ALP-POS-88a7a97e-44] | 9.92
34 | CC(C)(C)c1ccc(N(C(=O)c2cocn2)C(C(=O)NCCN2CCOCC2)c2cccnc2)cc1 (stereo not drawn) [ALP-POS-88a7a97e-47] | 82.5
35 | CCOC(=O)c1ncoc1CNC(=O)C(c1cccnc1)N(C(=O)c1cocn1)c1ccc(C(C)(C)C)cc1 (stereo not drawn) [ALP-POS-88a7a97e-49] | 5.88
36 | CC(C)(C)c1ccc(N(C(=O)c2c[nH]c(=O)s2)C(C(=O)NCCc2cccc(F)c2)c2cccnc2)cc1 (stereo not drawn) [ALP-POS-305f6ec3-2] | 29.1
37 | CC(C)(C)c1ccc(N(C(=O)c2c[nH]nn2)C(C(=O)NCCc2cccc(F)c2)c2cccnc2)cc1 (stereo not drawn) [ALP-POS-305f6ec3-14] | 1.17
38 | CC(C)(C)c1ccc(N(C(=O)c2c[nH]c(=O)cn2)C(C(=O)NCCc2cccc(F)c2)c2cccnc2)cc1 (stereo not drawn) [ALP-POS-305f6ec3-33] | 77.1
39 | CC(C)(C)c1ccc(N(C(=O)c2cc(CO)[nH]n2)C(C(=O)NCCc2cccc(F)c2)c2cccnc2)cc1 (stereo not drawn) [ALP-POS-305f6ec3-38] | 18.8
40 | CC(C)(C)c1ccc(N(C(=O)c2cncs2)C(C(=O)NCCc2cccc(F)c2)c2cccnc2)cc1 (stereo not drawn) [ALP-POS-305f6ec3-41] | 24.2
41 | Cn1ncc(C(=O)N(c2ccc(C(C)(C)C)cc2)C(C(=O)NCCc2cccc(F)c2)c2cccnc2)n1 (stereo not drawn) [ALP-POS-305f6ec3-46] | 17.6
42 | CC(C)(C)c1ccc(N(C(=O)c2cnco2)C(C(=O)NCCc2cccc(F)c2)c2cccnc2)cc1 (stereo not drawn) [ALP-POS-305f6ec3-49] | 4.78
43 | CC(C)(C)c1ccc(N(C(=O)c2c[nH]c(=O)[nH]2)C(C(=O)NCCc2cccc(F)c2)c2cccnc2)cc1 (stereo not drawn) [ALP-POS-305f6ec3-52] | 15.9
44 | Cn1cnc(C(=O)N(c2ccc(C(C)(C)C)cc2)C(C(=O)NCCc2cccc(F)c2)c2cccnc2)n1 (stereo not drawn) [ALP-POS-305f6ec3-55] | 74.2
45 | CC(C)(C)c1ccc(N(C(=O)c2cc(=O)[nH][nH]2)C(C(=O)NCCc2cccc(F)c2)c2cccnc2)cc1 (stereo not drawn) [ALP-POS-305f6ec3-59] | 39.7
46 | O=C(Nc1cncc2ccccc12)C1CCOc2c1ccc(Cl)c2Cl (stereo not drawn) [ALP-POS-869ac754-2] | 3.31

Row | Structure (SMILES) | IC50 [µM]
47 | O=C(Nn1nnc2ccccc21)C(Cc1cccc(Cl)c1)c1ccc(N2CCCCC2=O)cc1 (stereo not drawn) [ALP-POS-a3de0cb1-13] | 66.4
48 | O=C1CCCCN1c1ccc(N(Cc2ccccc2)C(=O)Cc2n[nH]c3ccccc23)cc1 [ALP-POS-a3de0cb1-16] | 39.4
49 | O=C(NCCc1cccc(F)c1)C(c1cccnc1)N(C(=O)c1ccco1)c1ccc(C2CCCC2)cc1 (stereo not drawn) [ALP-POS-b0bc6a46-5] | 0.282
50 | O=C(NCCc1cccc(F)c1)C(c1cccnc1)N(Cc1ccccc1C1CCC1)C(=O)c1ccco1 (stereo not drawn) [ALP-POS-b0bc6a46-10] | 1.93
51 | CC(C)(C)c1cnc(N(C(=O)c2ccco2)C(C(=O)NCCc2cccc(F)c2)c2cccnc2)s1 (stereo not drawn) [ALP-POS-b0bc6a46-12] | 3.94
52 | CSc1ccc(CN(C(=O)c2ccco2)C(C(=O)NCCc2cccc(F)c2)c2cccnc2)cc1C#N (stereo not drawn) [ALP-POS-b0bc6a46-20] | 54.9
53 | COc1ccc(N(C(=O)c2ccco2)C(C(=O)NCCc2cccc(F)c2)c2cccnc2)cc1 (stereo not drawn) [ALP-POS-b0bc6a46-22] | 30.5
54 | N#Cc1ccc(N(C(=O)c2ccco2)C(C(=O)NCCc2cccc(F)c2)c2cccnc2)cc1 (stereo not drawn) [ALP-POS-b0bc6a46-24] | 10.4
55 | O=C(NCCc1cccc(F)c1)C(c1cccnc1)N(C(=O)c1ccco1)C1CCN(c2ccccc2)CC1 (stereo not drawn) [ALP-POS-b0bc6a46-28] | 79.6
56 | COc1ccc2nnn(CC(=O)N(Cc3ccccn3)c3ccc(C4CCNCC4)cc3)c2c1 [ALP-POS-c0c213c9-1] | 35.5
57 | CC(C)(C(N)=O)c1ccc(N(Cc2ccsc2)C(=O)Cn2nnc3ccccc32)cc1 [ALP-POS-c0c213c9-6] | 3.17
58 | Cc1ccc(N(Cc2cscn2)C(=O)Cc2cncc3ccccc23)cc1 [ALP-POS-c3a96089-1] | 10.9
59 | CNc1ccc(N(Cc2ccsc2)C(=O)Cn2nnc3ccccc32)cc1 [ALP-POS-c59291d4-4] | 11.5
60 | O=C(Nc1cncc2ccccc12)C1CCOc2c(O)cc(Cl)cc21 (stereo not drawn) [ALP-POS-ce760d3f-1] | 0.579
61 | CN1C(=O)CCc2cc(N(C(=O)c3cocn3)C(C(=O)NCCc3cccc(F)c3)c3cccnc3)ccc21 (stereo not drawn) [ALP-POS-ced8ea4d-1] | 63.5
62 | CC(C)S(=O)(=O)c1ccc(N(C(=O)c2cocn2)C(C(=O)NCCc2cccc(F)c2)c2cccnc2)cc1 (stereo not drawn) [ALP-POS-ced8ea4d-5] | 66.1
63 | Cn1ncc2cc(N(C(=O)c3cocn3)C(C(=O)NCCc3cccc(F)c3)c3cccnc3)ccc21 (stereo not drawn) [ALP-POS-ced8ea4d-8] | 48
64 | CS(=O)(=O)c1ccc(N(C(=O)c2cocn2)C(C(=O)NCCc2cccc(F)c2)c2cccnc2)cc1 (stereo not drawn) [ALP-POS-ced8ea4d-9] | 75.9
65 | CS(=O)(=O)Cc1ccc(N(C(=O)c2cocn2)C(C(=O)NCCc2cccc(F)c2)c2cccnc2)cc1 (stereo not drawn) [ALP-POS-ced8ea4d-11] | 27.7
66 | CC(C)Oc1ccc(N(C(=O)c2cocn2)C(C(=O)NCCc2cccc(F)c2)c2cccnc2)cc1 (stereo not drawn) [ALP-POS-ced8ea4d-12] | 0.609
67 | O=C(NCCc1cccc(F)c1)C(c1cccnc1)N(C(=O)c1cocn1)c1ccc(Cn2cccn2)cc1 (stereo not drawn) [ALP-POS-ced8ea4d-16] | 8.34
68 | COc1ccc(N(C(=O)c2cocn2)C(C(=O)NCCc2cccc(F)c2)c2cccnc2)cc1 (stereo not drawn) [ALP-POS-ced8ea4d-19] | 22.2
69 | Cn1ccc2cc(N(C(=O)c3cocn3)C(C(=O)NCCc3cccc(F)c3)c3cccnc3)ccc21 (stereo not drawn) [ALP-POS-ced8ea4d-20] | 23.8
